Reference: paper PMC10993450, “New benzimidazole derivative compounds with in vitro fasciolicidal properties” (Parasites & Vectors, 2024)
Where “and” joins values, the source holds several entries; their conditions need not be identical. Equal values may be shown once. Read-outs that look alike come from different tables or passages of the source.

How the values were obtained:
[1] = tested on: Fasciola hepatica eggs (ABZ-susceptible isolate); assay: Egg hatch test (EHT), ABZ-susceptible isolates; format: cell-based; conditions: ABZ-susceptible isolate
Experimental: Eggs were recovered from gallbladders of cattle naturally infected with F. hepatica at the municipal slaughterhouse of León (Spain). For this, the bile of the gallbladders was filtered through sieves of different diameter size pores (500, 150, and 20 µm) using pressurized tap water. Eggs retained on the 20 µm pore size sieve were collected and stored at 4 °C in darkness until required within a maximum period of 2 months.
The susceptibility of the isolates to ABZ was confirmed by the egg hatch test (EHT) using an ABZ discriminant dose (DD) of 0.5 µM [23]. The technique is described in more detail below.
The in vitro anthelmintic activity of a total of 70 BZDs was initially tested on F. hepatica eggs recovered from gallbladders of cattle naturally infected with ABZ-susceptible isolates. The first screening was performed using a fixed concentration of 50 µM. […] Therefore, only BZDs with ovicidal activities over 80% progressed to the next assays at 10 µM. […] At this last concentration, the ovicidal effect of ABZ, ABZSO, and OXF was also evaluated.
(§1) The in vitro EHT described in the current study was based on previous studies. Briefly, 100–120 eggs were incubated in 990 µL of water and 10 μL of each working solution at 25 °C in the dark for a period of 12 h. After incubation, eggs were gently washed with tap water three times to facilitate compound removal and kept in darkness at 25 °C for 14 days. After this period, eggs were exposed to light for 2 h to stimulate the hatching of eggs. Then, hatched and unhatched eggs were evaluated and counted using an optical microscope. The term “hatched eggs” includes both hatched and embryonated eggs. Negative control eggs were incubated with 10 μL of DMSO in 990 μL of water, reaching a maximum DMSO concentration of 1% (v/v), while ABZ at 0.5 µM was used as positive control. Each compound at a specific concentration was tested in triplicate in the same EHT and repeated at least two different days.
With the aim to characterize the susceptibility of isolates from naturally infected cattle, the drug used in the EHT was ABZ, tested at a discriminant dose of 0.5 μM. Drug susceptibility is assumed when the ovicidal activity is over 70%, resistance when is lower than 40%, and a suspicion of resistance when activity is between these values at 0.5 μM.
(§2) The efficacy of each compound and drug was calculated as its ovicidal activity following the formula below: Ovicidal activity%=100×%eggs hatched in negative control-%egg hatched after drug incubation/%egg hatched in control.

[2] = tested on: Fasciola hepatica eggs (ABZ-resistant isolate); assay: Egg hatch test (EHT), ABZ-resistant isolate; format: cell-based; conditions: ABZ at discriminant dose (DD) 0.5 µM
Description: (§3) F. hepatica eggs were recovered after washing the gallbladder of three naturally infected sheep belonging to a flock suspected to be resistant to ABZ. From these eggs, metacercariae were produced at the Centro de Investigaciones de Mabegondo (AGACAL, Xunta de Galicia, Spain) following a previous protocol. These metacercariae were used to infect eight sheep with a dose of 200 metacercariae. The infection was confirmed individually 3 months after the infection by coprological analysis using a sedimentation technique. At that point, sheep were randomly located in two groups of four animals: one treated with a therapeutic dose of ABZ (7.5 mg/kg) and the other one only with water, as control group. To assess the efficacy of ABZ in this isolate, all sheep were humanely euthanized by an intravenous administration of a lethal dose of sodium pentobarbital (Dolethal®, Vetoquinol, Spain) 2 weeks later for fluke recovery and counting. Afterwards, the in vivo efficacy of ABZ was calculated as the percentage of adult worm reduction compared with the untreated control. Additionally, the number of eggs per gram of feces (EPG) was estimated on the treatment day (mentioned as day 0) and 14 days later to determine drug efficacy by means of the fecal egg count reduction test (FECRT).
During the necropsy, gallbladders from sheep belonging to the untreated group were taken to collect the eggs and carry out the in vitro EHT, while flukes collected from livers were used to conduct the adult viability test (AVT).
Those BZDs with an activity higher than 80% at a concentration of 10 µM were also screened on eggs and adults from the ABZ resistant isolate.
as §1, §2

[3] = tested on: Fasciola hepatica (resistant isolate); assay: In vivo efficacy of ABZ in sheep infected with the resistant isolate (worm count, FECRT); conditions: ABZ 7.5 mg/kg
Description: as §3, with “To assess the efficacy of ABZ in this isolate, all sheep were humanely euthanized by an intravenous administration of a lethal dose of sodium pentobarbital (Dolethal®, Vetoquinol, Spain) 2 weeks later for fluke recovery and counting.” left out, “Additionally, the number of eggs per gram of feces (EPG) was estimated on the treatment day (mentioned as day 0) and 14 days later to determine drug efficacy by means of the fecal egg count reduction test (FECRT).” left out
The percentage of in vivo efficacy of ABZ and the FECRT were calculated using the following formulas, respectively: %of Worm Reduction=100×Mean of adult worms in control group-Mean of adult worms in treated group/Mean of adult worms in control group. %FECRT=100×Arithmetic mean EPG day0-Arithmetic mean EPG day 14/Arithmetic mean EPG day0.

[4] = tested on: Fasciola hepatica eggs; parameters: method as in PMID 19560276; conditions: in vitro; other studies; cited from earlier work
[5] = tested on: murine intestinal organoids; assay: Intestinal tolerability assay on murine intestinal organoids; format: cell-based, mouse
Experimental: The murine intestinal organoid cultures were prepared following Stemcell Technologies™ protocols (https://www.stemcell.com/intestinal-epithelial-organoid-culture-with-intesticult-organoid-growth-medium-mouse-lp.html#protocols). Small intestine sections from C57BL/6 mice were excised, washed with ice-cold PBS, minced, and 2 mm segments were washed extensively. The segments were treated with Gentle Cell Dissociation Reagent (Stemcell Technologies™, Canada), resuspended in ice-cold PBS with 0.1% BSA and filtered. This process was repeated four times, resulting in four fractions. Cells from each fraction were centrifuged, washed, and resuspended in ice-cold DMEM/F12 supplemented with glutamine and HEPES 15 mM. Each fraction was mixed with Geltrex GFR LDEV-free (Gibco, Thermo Fisher Scientific, USA) and IntestiCult™ Organoid Grow Medium Mouse (Stemcell Technologies™, Canada), added to a 24-well plate and incubated at 37 °C for 10 min for matrix polymerization. The organoids were cultured in IntestiCult™ Organoid Grow Medium Mouse, with medium changes every 2 days and splitting after 7 days.
For intestinal tolerability assays, selected hit compounds were tested in mouse intestinal organoids at 25 and 50 µM final concentrations. The protocol, based on a previous work, involved the addition of Gentle Cell Dissociation Reagent (Stemcell Technologies™, Canada) on matrix domes, the disruption of the matrix, and the incubation the suspension. After centrifugation, cells were resuspended in DMEM/F12 supplemented with glutamine and HEPES 15 mM and centrifugated again. The pellet was resuspended in a mix of Geltrex GFR LDEV-free and IntestiCult™ Organoid Grow Medium Mouse. The mix was plated in 384-well plates, and after 4 days, mature organoids were exposed to the compounds. The positive control was hydrogen peroxide (0.15% v/v), and the negative control was DMSO (0.2%). Viability after 72 h was assessed using the alamarBlue assay.

[6] = tested on: HepG2 cells; assay: Cytotoxicity assay, alamarBlue; format: cell-based, human
Experimental: The effect of the BZDs on cell viability was assessed on a human hepatocarcinoma HepG2 (ATCC® HB-8065™, USA) cell line. Only compounds screened at a concentration of 10 µM were evaluated. The detailed protocol is described in a previous study carried out by our research group. Briefly, 10,000 cells were seeded on 96-well plates and incubated with different concentrations of the compounds ranging from 1 to 100 µM at 37 °C and 5% CO2. After 72 h of exposure, viability of the cells was assessed using the alamarBlue (Fisher Scientific®, Spain) staining method according to the manufacturer’s recommendations.
The data are represented as mean ± standard error of media (SEM).

[7] = tested on: Teladorsagia circumcincta eggs; conditions: read-out: 50% inhibitory concentration (IC50) in eggs by the EHT; T. circumcincta eggs; type I BZDs; cited from earlier work
[8] = tested on: Heligmosomoides polygyrus adults; parameters: method as in PMID 35804427; conditions: 10 µM; cited from earlier work
[9] = tested on: Trichuris muris adults; parameters: method as in PMID 35804427; conditions: 10 µM; cited from earlier work

**Q.** With `CCCSc1ccc2nc(NC(=O)OC)[nH]c2c1` [ABZ, albendazole, reference compound] as the compound, how does the “% Ovicidal activity” value ([1]; ABZ at discriminant dose (DD) 0.5 µM) read?
**A.** The value was 99.1% and 98%.

**Q.** What about the “% Ovicidal activity” value ([1]; ABZ at discriminant dose (DD) 0.5 µM, listed as ABZ (DD)) of the same compound?
**A.** Its value is 99.01 ± 00.37% and 98.55 ± 00.41%.

**Q.** What about the “% Ovicidal activity resistant isolate” value [2] of the same compound?
**A.** The value was 36.5%.

**Q.** What about the “% Ovicidal activity resistant isolate” value ([2]; listed as ABZ (DD)) of the same compound?
**A.** The value was 36.46 ± 02.36%.

**Q.** And the “reduction in the number of eggs in feces (FECRT)” value ([3]; day 0 vs day 14)?
**A.** The value was 0%.

**Q.** What about the “survival rate of the adult flukes” value ([3]; necropsy 2 weeks after treatment) of the same compound?
**A.** Its value is 96.7%.

**Q.** What about the “Lowest concentration able to reduce egg hatching” value [4] of the same compound?
**A.** The value was 0.05 µM.

**Q.** Which “% Ovicidal activity” value ([1]; 10 µM, mean ± SEM) does the source give for `COc1ccc(-c2nc3cc(C)ccc3[nH]2)cc1` [BZD04] here?
**A.** Its value is 64.27 ± 10.16%.

**Q.** What about the “% Ovicidal activity” value ([1]; 50 µM, mean ± SEM) of the same compound?
**A.** The value was 99.57 ± 0.43%.

**Q.** What about the “% Ovicidal activity” value ([1]; 50 µM, mean ± SEM, listed as BZD-04) of the same compound?
**A.** Its value is “higher than 80%”.

**Q.** And the “% Viability in organoids” value ([5]; 50 µM)?
**A.** The value was 10.50%.

**Q.** For `COc1ccc(-c2nc3cc(Cl)ccc3[nH]2)cc1` [BZD08], which “% Ovicidal activity” value ([1]; 10 µM, mean ± SEM) is on record?
**A.** The value was 55.33 ± 05.81%.

**Q.** And the “% Ovicidal activity” value ([1]; 10 µM, mean ± SEM, listed as BZD-08)?
**A.** Its value is “around 50%”.

**Q.** And the “% Ovicidal activity” value ([1]; 50 µM, mean ± SEM)?
**A.** Its value is 98.08 ± 1.06%.

**Q.** What about the “% Ovicidal activity” value ([1]; 50 µM, mean ± SEM, listed as BZD-08) of the same compound?
**A.** Its value is “higher than 80%”.

**Q.** What about the CC50 [6] of the same compound?
**A.** The CC50 was over 50 µM.

**Q.** What about the “% Viability in organoids” value ([5]; 25 µM) of the same compound?
**A.** Its value is 69.30%.

**Q.** And the “% Viability in organoids” value ([5]; 50 µM)?
**A.** Its value is 47.30%.

**Q.** What does the source list for `Clc1ccc(-c2nc3cc(Cl)ccc3[nH]2)cc1` [BZD09]?
**A.** % Ovicidal activity ([1]; 50 µM, mean ± SEM): 04.96 ± 1.22%; IC50 [7]: 6 µM; Inhibition of motility of Heligmosomoides polygyrus adults [8]: effectively inhibited the motility

**Q.** Which results are given for `O=[N+]([O-])c1ccc2[nH]c(-c3ccc(Cl)cc3)nc2c1` [BZD15]?
**A.** % Ovicidal activity ([1]; 50 µM, mean ± SEM): 24.32 ± 10.58%; Inhibition of Trichuris muris adult motility [9]: inhibited Trichuris muris adult motility

**Q.** For `Cc1ccc2[nH]c(NCc3ccccc3)nc2c1` [BZD27], which “% Ovicidal activity” value ([1]; 10 µM, mean ± SEM) is on record?
**A.** The value was 44.65 ± 07.46%.

**Q.** What about the “% Ovicidal activity” value ([1]; 10 µM, mean ± SEM, listed as BZD-27) of the same compound?
**A.** The value was “around 50%”.

**Q.** What about the “% Ovicidal activity” value ([1]; 50 µM, mean ± SEM) of the same compound?
**A.** The value was 95.92 ± 1.99%.

**Q.** What about the “% Ovicidal activity” value ([1]; 50 µM, mean ± SEM, listed as BZD-27) of the same compound?
**A.** Its value is “higher than 80%”.

**Q.** What about the “% Viability in organoids” value ([5]; 25 µM, 72 h) of the same compound?
**A.** Its value is 54.10%.

**Q.** What about the “% Viability in organoids” value ([5]; 50 µM, 72 h) of the same compound?
**A.** Its value is 49.70%.

**Q.** For `Cc1ccc2[nH]c(NCc3ccco3)nc2c1` [BZD30], which “% Ovicidal activity” value ([1]; 10 µM, mean ± SEM) is on record?
**A.** Its value is 52.41 ± 01.02%.

**Q.** What about the “% Ovicidal activity” value ([1]; 10 µM, mean ± SEM, listed as BZD-30) of the same compound?
**A.** Its value is “around 50%”.

**Q.** What about the “% Ovicidal activity” value ([1]; 50 µM, mean ± SEM) of the same compound?
**A.** Its value is 100.00 ± 0.00%.

**Q.** What about the “% Ovicidal activity” value ([1]; 50 µM, mean ± SEM, listed as BZD-30) of the same compound?
**A.** The value was “higher than 80%”.

**Q.** And the CC50 ([6]; 72 h exposure, alamarBlue, read-out: CC50 Hep-G2)?
**A.** The CC50 was over 50 µM.

**Q.** What about the “% Viability in organoids” value ([5]; 25 µM, 72 h) of the same compound?
**A.** Its value is 62.50%.

**Q.** And the “% Viability in organoids” value ([5]; 50 µM, 72 h)?
**A.** Its value is 54.00%.
